Columns and labels:
[1] = Stability in mouse liver microsomes; type: in vitro ADME; details: half-life
Protocol: (§1) Stability in liver microsomes. Human, mouse and rat liver microsomes were used to assess the metabolic stability for the compounds. Metabolic stability was determined in 0.5 mg/mL human, mouse or rat liver microsomes at a compound concentration of 1 μM in 100 mM potassium phosphate buffer (pH 7.4) in a total incubation volume of 500 μL by Eurofins. The assay matrix was: human liver microsomes: mixed gender and pool of 50, rat liver microsomes: male, Sprague-Dawley, pool of 100 or more and mouse liver microsomes: male,CD-1, pool of 250 or more. Final microsomal protein concentration: 0.1mg/mL. The test concentration was 0.1 μM with 0.01% DMSO, 0.25% acetonitrile and 0.25% methanol by default. […] The reaction was initiated by adding NADPH-generating system and was incubated for 0, 15, 30, 45, and 60 min. The reaction was stopped by transferring the incubation mixture to acetonitrile/methanol. Samples were then mixed and centrifuged. Four reference compounds were tested in each assay. Propranolol and imipramine are relatively stable, whereas verapamil and terfenadine are readily metabolized inhuman liver microsomes. Samples were analyzed by HPLC-MS/MS using selected reaction monitoring. The HPLC system consisted of a binary LC pump with autosampler, a C-18 column, and a gradient. Peak areas corresponding to the test compound were recorded. The compound remaining was calculated by comparing the peak area at each time point to time zero. The half-life was calculated from the slope of the initial linear range of the logarithmic curve of compound remaining (%) vs. time, assuming first order kinetics. In addition, the intrinsic clearance (Clint) was calculated.^19,20

[2] = Stability in rat liver microsomes; type: in vitro ADME; details: half-life
Protocol: as §1

CYP3A [3] = test: CYP450 inhibition assay, pooled human liver microsomes, testosterone substrate; details: both, human, pooled human liver microsomes, pH 7.4, probe testosterone, CYP 450 Inhibition CYP3A testosterone, at 10 μM
Protocol: The compound was tested at a single concentration (10 μM) with 0.1% DMSO. […] The reaction was initiated by adding a NADPH-generating system. The reaction was allowed for 10 min and stopped by transferring the reaction mixture to acetonitrile/methanol. Samples were mixed and centrifuged. Supernatants were used for HPLC-MS/MS of the respective metabolite. The activity of human cytochrome P450 (CYP) enzymes were determined by following the formation of a metabolite of the probe substrate. The following enzymes were evaluated for inhibition using the listed reference substrates and reference inhibitors:
CYP1A—phenacetin (reference inhibitor furafylline), CYP2B6—bupropion (reference inhibitor clopidogre), CYP2C8-amodiaquine (reference inhibitor montelukast), CYP2C9—diclofenac (reference inhibitor sulfaphenazole), CYP2C19—omeprazole (reference inhibitor oxybutynin), CYP2D6—dextromethorphan (reference inhibitor quinidine), CYP3A—midazolam (reference inhibitor ketoconazol) and CYP3A—testosterone (reference inhibitor ketoconazol). The reference inhibitors were tested in each assay at multiple concentrations to obtain an IC50 value. Peak areas corresponding to the metabolite were recorded. The percent of control activity was calculated by comparing the peak area in the presence of the test compound to the control samples containing the same solvent. Subsequently, the percent inhibition was calculated by subtracting the percent control activity from 100. The IC50 value (concentration causing a half-maximal inhibition of the control value) was determined by non-linear regression analysis of the concentration-response curve using the Hill equation.

CYP1A = molecular target: T1, CYP1A (Homo sapiens, UniProt P05177); test: CYP450 inhibition assay, pooled human liver microsomes, phenacetin substrate; details: for inhibition at 10 min, 10 µM: both, human, pooled human liver microsomes, pH 7.4, probe phenacetin; for CYP 450 Inhibition CYP1A: at 10 μM
T1 sequence (P05177 1-516): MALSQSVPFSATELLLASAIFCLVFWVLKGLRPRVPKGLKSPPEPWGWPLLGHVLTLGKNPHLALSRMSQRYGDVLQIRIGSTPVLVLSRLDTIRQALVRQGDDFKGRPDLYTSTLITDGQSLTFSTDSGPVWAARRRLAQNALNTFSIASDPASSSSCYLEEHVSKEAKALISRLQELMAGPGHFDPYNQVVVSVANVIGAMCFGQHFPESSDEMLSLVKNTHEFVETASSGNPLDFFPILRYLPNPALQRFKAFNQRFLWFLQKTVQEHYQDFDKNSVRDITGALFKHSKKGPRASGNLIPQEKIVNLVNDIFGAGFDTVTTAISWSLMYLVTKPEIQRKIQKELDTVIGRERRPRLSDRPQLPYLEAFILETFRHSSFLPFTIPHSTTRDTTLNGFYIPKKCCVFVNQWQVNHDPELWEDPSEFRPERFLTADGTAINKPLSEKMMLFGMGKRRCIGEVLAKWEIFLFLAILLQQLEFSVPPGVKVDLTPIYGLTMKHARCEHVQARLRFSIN

CYP2B6 = molecular target: T2, CYP2B6 (Homo sapiens, UniProt P20813); test: CYP450 inhibition assay, pooled human liver microsomes, bupropion substrate; details: for inhibition at 10 min, 10 µM: both, human, pooled human liver microsomes, pH 7.4, probe bupropion; for CYP 450 Inhibition CYP2B6: at 10 μM
T2 sequence (P20813 1-491): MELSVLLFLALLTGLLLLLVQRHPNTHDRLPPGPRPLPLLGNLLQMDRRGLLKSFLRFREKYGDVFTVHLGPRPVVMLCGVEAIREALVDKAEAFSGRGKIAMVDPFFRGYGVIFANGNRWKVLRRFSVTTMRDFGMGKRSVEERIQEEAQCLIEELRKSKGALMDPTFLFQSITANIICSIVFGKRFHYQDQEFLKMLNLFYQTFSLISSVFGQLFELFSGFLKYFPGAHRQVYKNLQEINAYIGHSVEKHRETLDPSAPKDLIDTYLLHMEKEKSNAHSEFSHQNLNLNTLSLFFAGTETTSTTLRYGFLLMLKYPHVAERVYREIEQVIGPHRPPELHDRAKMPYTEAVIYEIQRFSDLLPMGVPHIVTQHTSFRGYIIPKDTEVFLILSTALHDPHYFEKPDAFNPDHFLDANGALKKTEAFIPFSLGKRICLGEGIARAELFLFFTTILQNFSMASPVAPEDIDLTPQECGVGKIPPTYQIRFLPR

CYP3A [4] = test: CYP450 inhibition assay, pooled human liver microsomes, midazolam substrate; details: for inhibition at 10 min, 10 µM: both, human, pooled human liver microsomes, pH 7.4, probe midazolam; for CYP 450 Inhibition CYP3A midazolam: at 10 μM, midazolam substrate

Structure (SMILES) | Stability in liver microsomes MLM [1] | Stability in liver microsomes RLM [2] | inhibition at 10 min, 10 µM (CYP3A [3]) | inhibition at 10 min, 10 µM (CYP1A) | inhibition at 10 min, 10 µM (CYP2B6) | inhibition at 10 min, 10 µM (CYP3A [4]) | CYP 450 Inhibition CYP1A (CYP1A) | CYP 450 Inhibition CYP2B6 (CYP2B6) | CYP 450 Inhibition CYP3A midazolam (CYP3A [4])
CCCCOC(=O)[N-]S(=O)(=O)c1sc(CC(C)C)cc1-c1ccc(Cn2ccnc2C(C)(C)C)cc1.[K+] [Example 11B, Potassium (butoxycarbonyl)((3-(4-((2-(tert-butyl)-1H-imidazol-1-yl)methyl)phenyl)-5-isobutylthiophen-2-yl)sulfonyl)amide] | 10 min | 18 min | 21% | 8.4% | 51% | -5.1% | – | – | –
CCCCOC(=O)NS(=O)(=O)c1sc(CC(C)C)nc1-c1ccc(Cn2ccnc2C(C)(C)C)cc1 [Example 4, Butyl ((4-(4-((2-(tert-butyl)-1H-imidazol-1-yl)methyl)phenyl)-2-isobutylthiazol-5-yl)sulfonyl) carbamate] | 7 min | 12 min | 7.5% | – | – | – | −7.3% | 29% | 24%
COC(=O)[N-]S(=O)(=O)c1ccc(CC(C)C)cc1-c1ccc(Cn2ccnc2C(C)(C)O)cc1.[K+] [Example 8B, Potassium ((4′-((2-(2-hydroxypropan-2-yl)-1H-imidazol-1-yl)methyl)-5-isobutyl-[1,1′-biphenyl]-2-yl)sulfonyl)(methoxycarbonyl)amide] | >60 min | 41 min | 10.7% | 5.7% | 28% | 1.3% | – | – | –

The remaining lines, values ahead:

Stability in liver microsomes MLM [1] | Stability in liver microsomes RLM [2] | inhibition at 10 min, 10 µM (CYP3A [3]) | inhibition at 10 min, 10 µM (CYP1A) | inhibition at 10 min, 10 µM (CYP2B6) | inhibition at 10 min, 10 µM (CYP3A [4]) | CYP 450 Inhibition CYP1A (CYP1A) | CYP 450 Inhibition CYP2B6 (CYP2B6) | CYP 450 Inhibition CYP3A midazolam (CYP3A [4]) | Structure (SMILES)
>60 min | >60 min | 2.7% | – | – | – | 8.4% | 24% | 5.4% | COC(=O)NS(=O)(=O)c1sc(CC(C)C)nc1-c1ccc(Cn2ccnc2C(C)(C)C)cc1 [Example 3, Methyl ((4-(4-((2-(tert-butyl)-1H-imidazol-1-yl)methyl)phenyl)-2-isobutylthiazol-5-yl)sulfonyl) carbamate]
>60 min | >60 min | 14% | 11% | 18% | 0% | – | – | – | COC(=O)NS(=O)(=O)c1ccc(CC(C)C)cc1-c1ccc(Cn2ccnc2C(C)(C)C)cc1 [Example 1A, Methyl ((4′-((2-(tert-butyl)-1H-imidazol-1-yl)methyl)-5-isobutyl-[1,1′-biphenyl]-2-yl)sulfonyl)carbamate]
